Laboratory results: patent publication US5183828A, “Polyhydroxybenzoic acid derivatives” (priority 1990, dated 1993)
Where “and” joins values, the source holds several entries; their conditions need not be identical. Identical values can stand only once. Counter-ions that a name gives are not always drawn.

Assays:
L1210 leukemia = test: antitumor activity in L1210 leukemia (percent increase in survival time), Table 2; type: in vivo, mice; conditions: Mus musculus, L1210, 192 h, 8 days; for ILS at 300 mg/kg: 300 mg/kg ip daily
Experimental: Testing of the compounds of this invention against L-1210 lymphoid leukemia were carried out as follows: L-1210 leukemia was maintained by weekly passage of 10^5 L-1210 cells intraperitoneally into DBA/2 mice. Diluted ascitic fluid, 0.1 ml. (10^5 cells), was administered ip to female B6D2 F1 mice weighing about 20 g. Drugs were administered ip 24 hours after tumor transplantation and injections were continued daily for a total of eight days. A group of control mice receiving only the injection medium were maintained. Table 2 which follows gives the antitumor activity against L-1210 leukemia for certain compounds of this invention. In the table, column 1 gives the name of the compound, column 2 the dose in mg./kg., and column 3 the percent increase in survival time over controls at each dose level.

[1] = free radical scavenging ability (destruction of diphenylpicrylhydrazyl), Table 7; conditions: 100 μM diphenylpicrylhydrazyl in acetone; test compound 25 μM, 2.5 μM (footnote)
Excerpt: It is believed that the antineoplastic activity of the compounds of this invention is due in parts to their ability to scavenge free-radicals. Additionally, the compounds of this invention are cancer protective agents and this utility also may be a manifestation of their free-radical scavenging capability. Free-radical scavenging agents may also be useful in detoxifying mammals in whom an excess of free radicals is a cause and/or result of the toxicity. Other possible uses of free radical scavengers are to inhibit protaglandin transformation, leucotriene interconversion and lipogenesis, to act as inflammatory modulators and as food additive or preservatives to prevent lipid oxidation. The free radical scavenging ability of the compounds of the invention was determined by measuring the destruction of the stable free radical, diphenylpicrylhydrazyl, in the presence of the test compound in a manner similar to that reported by […] and Herzmann, Naturwiss, 47, 133-134 (1960). […] The test compound was added at a final concentration of 25 μM and the rate of reduction of absorpotion at […] was observed. Table 7 below gives the free radical scavenging abilities of the compounds of this invention expresses as the initial rate of decrease in optical density units/min.

B16 Melanoma = test: activity vs B16 melanoma (T/C % survival), Table 4; type: in vivo, mice; conditions: nine days, >120 significant
Experimental: The drugs were also used to treat melanotic melanoma B16. The protocol for testing against this tumor is as follows:
0.5 ml. of a tumor homogenate prepared by homogenizing 1 g. of tumor with 10 ml. of cold balanced solution is implanted ip in groups of 10 B6 C3 F1 mice. The drug is administered daily for a total of nine days starting one day after tumor inoculation. The results are expressed as mean survival time of treated group versus control group (T/C) as a percent.

SRS-A biosynthesis = test: effect of drug on SRS-A biosynthesis; type: in vivo; conditions: 10 mg/kg, i.v.; ovalbumin-sensitized guinea-pigs
Experimental: Compounds according to this invention were also able to affect SRS-A biosynthesis, also in vivo. In this determination, male Hartley guinea-pigs (200-300 g) were sensitized with a single intraperitoneal injection of ovalbumin (10 mg) in 1 ml of 0.9% w/v NaCl solution (saline). The animals were used for study on days 28-45, following the ovalbumin injection. Guinea-pigs this sensitized were anaesthetized with an intraperitoneal injection of urethane (2 g/kg), and the carotid artery and jugular vein cannulated for measurement of arterial blood pressure and to facilitate intravenous drug administration. Animals were ventilated with a Harvard small animal respirator set at a stroke volume of 2.5 cc and a rate of 40 breaths per min. Ventilatory pressure (cmH2 O) was measured with a Statham pressure transducer from a side arm off the tracheal cannula. […]
Plasma SRS-A was determined as follows: Arterial blood was drawn from the carotid artery of the guinea-pigs into sodium citrate (0.38%) containing indomethacin (10^-4 M). […]
SRS-A was bioassayed on the guinea-pig ileum incubated in Tyrode solution containing 10^-6 M atropine sulphate and 10^-6 M pyrilamine maleate and aerated with 95% O2 and 5% CO2. Changes in tension were measured isotonically with an Adaps rotary motion transducer and recorded on a Linear recorder. […]

Row | SMILES | ILS at 157 mg/kg (L1210 leukemia; 157 mg/kg ip daily) [%] | ILS at 200 mg/kg (L1210 leukemia; 200 mg/kg ip daily) [%] | ILS at 238 mg/kg (L1210 leukemia; 238 mg/kg ip daily) [%] | ILS at 300 mg/kg (L1210 leukemia) [%] | initial rate of decrease in optical density (518 nm) [1] [units/min.] | T/C % (mean survival time) (B16 Melanoma; 25 mg/kg daily) [%] | T/C % (mean survival time) (B16 Melanoma; 50 mg/kg daily) [%] | T/C % (mean survival time) (B16 Melanoma; 100 mg/kg daily) [%] | T/C % (mean survival time) (B16 Melanoma; 200 mg/kg daily) [%] | T/C % (mean survival time) (B16 Melanoma; 400 mg/kg daily) [%] | T/C % (mean survival time) (B16 Melanoma; 800 mg/kg daily) | % Inhibition of SRS-A Biosynthesis (SRS-A biosynthesis) [%] | ILS at 450 mg/kg (L1210 leukemia; 450 mg/kg ip daily) [%] | T/C % (mean survival time) (B16 Melanoma; 50 mg/kg daily, listed as ethyl gallamidate.HCl, hydrochloride) | T/C % (mean survival time) (B16 Melanoma; 100 mg/kg daily, listed as ethyl gallamidate.HCl, hydrochloride) | T/C % (mean survival time) (B16 Melanoma; 200 mg/kg daily, listed as ethyl gallamidate.HCl, hydrochloride) | T/C % (mean survival time) (B16 Melanoma; 400 mg/kg daily, listed as ethyl gallamidate.HCl, hydrochloride)
1 | NC(=NO)c1ccc(O)c(O)c1 [3,4-dihydroxybenzamidoxime.HCl, 3,4-dihydroxybenzamidoximehydrochloride] | 132 | 43.5 | 46.9 | 73.9 | 0.718 | 119 | 127 | 129 | 134 | 117 | toxic | 25 | – | – | – | – | –
2 | CCOC(=N)c1cc(O)c(O)c(O)c1 [ethyl 3,4,5-trihydroxybenzamidate-HCl, Ethyl 3,4,5-trihydroxybenzamidate hydrochloride] | – | – | – | 42.3 | 3.730 | 105 | – | – | – | – | – | 29 | 58.4 | 109% and 104% | 121% and 109% and 107% | 121% and 125% and 122% | 124% and 156% and 137%
